# Data published in paper PMC10892419, “UHPLC-MS/MS Assay for Quantification of Legubicin, a Novel Doxorubicin-Based Legumain-Activated Prodrug, and Its Application to Pharmacokinetic and Tissue Distribution Studies” (Molecules, 2024).
# Columns and labels:
# [1] = Single-dose pharmacokinetic study of legubicin, i.v.; conditions: free metabolite in plasma; for AUClast / Cmax: n = 3, mean ± SD; for Tmax: n = 3, median [min, max]
# Procedure: The pharmacokinetic parameters are outlined in Table 5. […] A power-function model was used to fit the relationship between exposure level (Cmax, AUClast, and AUCINF_obs) parameters and dose, and the power exponent (parameter β) and its 90% confidence interval were obtained (see Table S5).
# The mixture was vortexed for 3 min, and then centrifuged at 22,000× g at 4 °C for 10 min. A final analysis was conducted by injecting 5 µL supernatant into a UHPLC-MS/MS system. Mouse plasma samples were treated in the same way as the rat plasma samples, except for protein precipitation, with 200 µL of 5 pmol/mL IS working solution and injection of 2 µL of supernatant for analysis.
# (1) For the hydrolysis process, an aliquot of 25 µL of rat/mouse plasma was transferred into an Eppendorf tube, and then 50 µL of enzyme digestion buffer and 25 µL of legumain enzyme were placed into the tube. The mixture was vortexed for 1 min, and then incubated in a water bath for 24 h at 37 °C for enzymatic hydrolysis. (2) For the protein precipitation process, 1000 µL of IS working solution (5 pmol/mL and 50 pmol/mL for rat and mouse plasmas, respectively) was added to the enzymatic-hydrolysis solution. Then, the sample was vortexed for 3 min and centrifuged at 22,000× g for 10 min at 4 °C. Analyses were performed on the 3 µL aliquot of the solution used in the UHPLC-MS/MS system.
# Twenty-four rats, inclusive of both sexes, were randomly distributed into four groups. Groups 1, 2, and 3 were single-dose groups, among which the subjects received legubicin via tail intravenous injection (a dose of 1.5, 5, or 15 mg/kg; i.e., 1.36, 4.52, or 13.6 µmol/kg). The fourth group was utilized for a multi-dose study at 5 mg/kg (once-weekly for 4 consecutive weeks). Blood samples of approximately 150 µL were taken from the jugular vein at 0 h (pre-dosing) and at 0.167 h (10 min), 0.5 h, 1 h, 2 h, 4 h, 8 h, 24 h, 48 h, and 72 h post-dosing in the single-dose groups. Samples were also obtained on days 1 and 22 for the multiple-dose group in the same way as for the single-dose groups. However, on days 8 and 15, samples were taken only before and 10 min after administration. The K2EDTA quantities containing blood samples were centrifuged (4 °C, 4000 rpm, 10 min) to collect plasma samples, which were separated into EP tubes and kept at −80 °C until further assay.
# The analysis software (Version 1.5.2, AB Sciex, Vaughan, ON, Canada) was applied to data acquisition and quantification. Pharmacokinetic parameters were calculated with WinNonlin Phoenix (v6.4, Pharsight, Mountain View, CA, USA) with the noncompartmental method, and were presented as mean ± SD (%CV). The “Best fit” strategy in the WinNonlin Phoenix was used for the calculation of elimination half-life and the selection of the elimination phase. Graphs were plotted by GraphPad Software (GraphPad Prism 8.0.2; GraphPad Software, Inc., La Jolla, CA, USA).
# [2] = Storage stability of analytes in mouse plasma (method validation); conditions: for Freeze and thaw stability at -80 °C/ room temperature, Bias / Freeze and thaw stability at -80 °C/ room temperature, Measured concentration / Long term stability at -80 °C (30 days), Bias / Short term stability at room temperature (6 h), Bias / Long term stability at -80 °C (30 days), Measured concentration / Short term stability at room temperature (6 h), Measured concentration: mouse plasma; for Freeze and thaw stability at -80 °C/ room temperature, Bias / Freeze and thaw stability at -80 °C/ room temperature, Measured concentration: 1 cycle
# Procedure: By investigating low- and high-concentration stability QCs in six replicates at different storage conditions, autosampler, short-term (bench-top), freeze and thaw, and long-term stability evaluations were conducted.
# [3] = female SD rats, single i.v. legubicin 1.5 mg/kg
# [4] = female SD rats, single i.v. legubicin 5 mg/kg
# [5] = female SD rats, single i.v. legubicin 15 mg/kg
# [6] = male SD rats, single i.v. legubicin 1.5 mg/kg
# [7] = male SD rats, single i.v. legubicin 5 mg/kg
# [8] = male SD rats, single i.v. legubicin 15 mg/kg
# [9] = high QC (nominal Leu-DOX 2400, DOX 800 pmol/mL), n = 6, mean ± SD
# [10] = low QC (nominal Leu-DOX 9, DOX 3 pmol/mL), n = 6, mean ± SD
# [11] = high QC (Leu-DOX 2400, DOX 800 pmol/mL, conjugate 80 nmol/mL), n = 6
# [12] = low QC (Leu-DOX 9, DOX 3 pmol/mL, conjugate 0.2 nmol/mL), n = 6
structure (smiles),measurement,setting,value
"COc1cccc2c1C(=O)c1c(O)c3c(c(O)c1C2=O)C[C@@](O)(C(=O)CO)C[C@@H]3O[C@H]1C[C@H](NC(=O)[C@@H](N)CC(C)C)[C@H](O)[C@H](C)O1 [Leu-DOX, N-L-leucyl-doxorubicin]",AUClast,[1]; [3],0.00644 ± 0.00202 µM·h
same,Cmax,[1]; [3],21.5 ± 7.78 nM
same,Tmax,[1]; [3],"0.167 [0.167, 0.167] h"
same,AUClast,[1]; [4],0.052 ± 0.0162 µM·h
same,Cmax,[1]; [4],72.1 ± 16.0 nM
same,Tmax,[1]; [4],"0.167 [0.167, 0.167] h"
same,AUClast,[1]; [5],0.336 ± 0.0625 µM·h
same,Cmax,[1]; [5],373 ± 63.2 nM
same,Tmax,[1]; [5],"0.167 [0.167, 0.167] h"
same,AUClast,[1]; [6],0.0112 ± 0.0021 µM·h
same,Cmax,[1]; [6],29.5 ± 2.74 nM
same,Tmax,[1]; [6],"0.167 [0.167, 0.167] h"
same,AUClast,[1]; [7],0.0943 ± 0.0105 µM·h
same,Cmax,[1]; [7],145 ± 23.9 nM
same,Tmax,[1]; [7],"0.167 [0.167, 0.167] h"
same,AUClast,[1]; [8],1.03 ± 0.244 µM·h
same,Cmax,[1]; [8],1100 ± 243 nM
same,Tmax,[1]; [8],"0.167 [0.167, 0.167] h"
same,"Freeze and thaw stability at -80 °C/ room temperature, Bias","[2]; high QC (Leu-DOX 2400, DOX 800 pmol/mL), n = 6",-1.8%
same,"Freeze and thaw stability at -80 °C/ room temperature, Measured concentration",[2]; [9],2356.67 ± 81.65 pmol/mL
same,"Freeze and thaw stability at -80 °C/ room temperature, Bias","[2]; low QC (Leu-DOX 9, DOX 3 pmol/mL), n = 6",-1.4%
same,"Freeze and thaw stability at -80 °C/ room temperature, Measured concentration",[2]; [10],8.87 ± 0.24 pmol/mL
same,"Long term stability at -80 °C (30 days), Bias",[2]; [11],9.9%
same,"Short term stability at room temperature (6 h), Bias",[2]; [11],-5.3%
same,"Long term stability at -80 °C (30 days), Measured concentration",[2]; [9],2636.67 ± 103.47 pmol/mL
same,"Short term stability at room temperature (6 h), Measured concentration",[2]; [9],2275.00 ± 81.67 pmol/mL
same,"Long term stability at -80 °C (30 days), Bias",[2]; [12],0.9%
same,"Short term stability at room temperature (6 h), Bias",[2]; [12],-3.2%
same,"Long term stability at -80 °C (30 days), Measured concentration",[2]; [10],9.08 ± 0.43 pmol/mL
same,"Short term stability at room temperature (6 h), Measured concentration",[2]; [10],8.71 ± 0.32 pmol/mL
same,"Auto-sampler stability at 2-8 °C, Bias","[2]; processed mouse plasma, 12 h, high QC (Leu-DOX 2400, DOX 800 pmol/mL), n = 6",-2.4%
same,"Auto-sampler stability at 2-8 °C, Measured concentration","[2]; processed mouse plasma, 12 h, high QC (nominal Leu-DOX 2400, DOX 800 pmol/mL), n = 6, mean ± SD",2341.67 ± 132.43 pmol/mL
